The test system of one assay is gastric acid secretion. Nature of the assay: Gastric acid antisecretory activity in pylorus ligated rat model (intraduodenal). Format: in vivo, Male wistar rats. As to conditions: for ED50: pylorus ligated rat, read-out: ED50 value (in vivo experiment, gastric acid secretion); for ED50 / inhibition in vivo at 10 mg/kg: intraduodenal, 2 h; for inhibition in vivo at 10 mg/kg: Rattus norvegicus. As for the experimental part: B) Gastric acid antisecretory activity The inhibitory effect on gastric acid secretion is determined in pylorus ligated rat model according to Shay et al. ([…]., Gruenstein, H. & Siplet, H. Gastroenterology 1945, 5:43). Male wistar rats weighing about 150-200 g fasted for 24 h with ad libitum are used. Under ether anaesthesia the laparotomy is performed and pylorus portion of the stomach is isolated and ligated with surgical suture. The test drug/vehicle is administered intraduodenally and the abdominal incision is closed using Michael clips. After 2 h, the animals were sacrificed with excess ether anaesthesia and stomach is removed. The gastric contents are collected and centrifuged at 10,000 rpm for 10 min. The volume of the gastric juice is measured and acid concentration is estimated by titrating an aliquot of the gastric juice against 0.004N NaOH using phenolphthalein as the indicator. Total acid output is expressed as milliequivalents/L/kg/h and volume of gastric juice as mL/kg/h. The ED50 value for the test compound is calculated according to graphical method. Omeprazole is used as a standard compound.

In a further assay the target is T1, H^+ /K^+ - ATPase (Oryctolagus cuniculus, UniProt P27112).
T1 construct: Rabbit gastric mucosa containing H^+ /K^+ - ATPase activity is isolated; from tissue; host or cells: rabbit gastric fundic mucosa, membrane fraction (sucrose-step ultracentrifugation pellet)
T1 sequence (P27112 2-1035 limits assumed): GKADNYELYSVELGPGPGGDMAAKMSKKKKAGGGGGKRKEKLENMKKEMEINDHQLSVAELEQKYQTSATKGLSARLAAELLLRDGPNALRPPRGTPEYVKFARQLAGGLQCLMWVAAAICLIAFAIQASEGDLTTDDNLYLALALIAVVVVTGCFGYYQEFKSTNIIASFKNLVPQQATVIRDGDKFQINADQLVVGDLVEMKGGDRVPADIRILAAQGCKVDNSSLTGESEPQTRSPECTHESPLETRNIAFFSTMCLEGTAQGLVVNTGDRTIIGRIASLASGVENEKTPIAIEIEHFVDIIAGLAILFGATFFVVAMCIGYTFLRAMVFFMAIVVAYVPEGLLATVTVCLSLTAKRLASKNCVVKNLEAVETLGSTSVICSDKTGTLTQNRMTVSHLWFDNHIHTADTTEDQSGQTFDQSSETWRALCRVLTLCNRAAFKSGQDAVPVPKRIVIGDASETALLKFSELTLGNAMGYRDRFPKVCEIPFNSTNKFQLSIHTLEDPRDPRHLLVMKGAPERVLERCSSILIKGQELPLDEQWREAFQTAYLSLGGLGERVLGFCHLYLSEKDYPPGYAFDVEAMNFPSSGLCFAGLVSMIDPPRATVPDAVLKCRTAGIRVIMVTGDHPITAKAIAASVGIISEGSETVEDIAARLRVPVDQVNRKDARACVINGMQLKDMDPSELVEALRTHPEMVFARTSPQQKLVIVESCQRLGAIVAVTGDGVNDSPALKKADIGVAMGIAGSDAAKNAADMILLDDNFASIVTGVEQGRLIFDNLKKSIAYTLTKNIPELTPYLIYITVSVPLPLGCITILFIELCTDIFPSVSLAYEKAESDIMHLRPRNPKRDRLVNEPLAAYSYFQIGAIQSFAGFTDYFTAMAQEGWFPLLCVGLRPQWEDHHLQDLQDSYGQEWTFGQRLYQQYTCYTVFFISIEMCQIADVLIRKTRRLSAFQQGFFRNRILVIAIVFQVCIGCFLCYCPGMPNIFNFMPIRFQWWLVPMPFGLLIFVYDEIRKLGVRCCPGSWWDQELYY
T1 sequence (P18597 whole entry partner): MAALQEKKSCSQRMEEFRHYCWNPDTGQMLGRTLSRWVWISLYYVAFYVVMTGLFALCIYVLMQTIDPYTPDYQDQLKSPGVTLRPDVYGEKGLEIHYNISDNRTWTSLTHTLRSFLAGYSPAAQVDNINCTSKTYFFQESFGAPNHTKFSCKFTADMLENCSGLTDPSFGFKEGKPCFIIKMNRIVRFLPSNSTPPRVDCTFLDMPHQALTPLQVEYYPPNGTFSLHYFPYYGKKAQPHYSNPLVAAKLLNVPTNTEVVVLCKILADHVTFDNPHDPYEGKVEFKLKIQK
The experiment in a line: H+/K+-ATPase inhibition (rabbit gastric mucosa enzyme, Pi liberated by ATP hydrolysis). Format: biochemical. The conditions noted are these: pH 6.5, 37° C., 15 min. The text has this:
A) H^+ /K^+ - ATPase inhibition
The most efficient method for reducing acid-related gastrointestinal disorder is through the inhibition of proton pump on the gastric parietal cell. The proton pump (H^+ /K^+ ATPase) is a membrane bound enzyme that exchanges protons for K^+ ions across the apical surface. Associated with this is a K^+ /Cl^- cotransporter which recycles the K^+ together with the Cl^- across the apical surface where HCl is formed by the Cl^- ions together with the secreted H^+. This enzyme has an ATP hydrolyzing activity which requires intravesicular K^+.
Principle [formula] Pi liberated is estimated, the amount of Pi liberated is proportional to the enzyme activity.
(i) Preparation of H^+ /K^+ - ATPase […]
Assay is carried out according to the protocol described by Beil, R (Beil, R. Br. J. Pharmacol, 1984, 82:651). […] After incubation for 15 min. at 37° C., the reaction is stopped by adding equal volume of phosphate reagent and the Pi produced by the hydrolysis of ATP is determined by the method of Lin et al. (Lin T -I. & Morales, M. F. Anal. Biochem. 1977, 77:10). The H^+ /K^+ - ATPase activity is calculated by subtracting the basal activity (in absence of KCl) from the rate of hydrolysis of ATP in the presence of K^+. The percent inhibition were determined for the test compounds.

Structures can show the parent of a compound that is named as a salt.

`COc1ccnc(C[S+]([O-])c2nc3cc(N4CCOCC4)c(F)cc3[nH]2)c1C` (stereo not shown) [Example 57, 2-[[(4-Methoxy-3-methyl)pyridin-2-yl]methylsulfinyl]-6-fluoro-5-(morpholin-1-yl)-1H-benzimidazole]: the ED50 (in general, the dose that gives a 50% effect, or the effect in half of the subjects) with gastric acid secretion stood at 3 ± 0.2 mg/kg. The half-maximal inhibitory concentration (IC50) (as a rule, the point on the concentration scale where inhibition reaches its midpoint) on H^+ /K^+ - ATPase is 2.6 µM.
On to `COc1ccnc(C[S+]([O-])c2nc3cc(N4CCCCC4)c(F)cc3[nH]2)c1C` (stereo not shown) [Example 67, 2-[[(4-Methoxy-3-methyl)pyridin-2-yl]methylsulfinyl]-6-fluoro-5-(piperidin-1-yl)-1H-benzimidazole], for which the inhibition in vivo – broadly, the relative decrease from the control value, in per cent – at 10 mg/kg in the assay on gastric acid secretion worked out at 100%.
For `COc1ccnc(C[S+]([O-])c2nc3cc(N4CCCCC4)c(F)cc3[nH]2)c1C` (stereo not shown) [Example 68, 2-[[(4-Methoxy-3-methyl)pyridin-2-yl]metlhylsulfinyl]-6-fluoro-5-(piperidin-1-yl)-1H-benzimidazole, sodium salt], in the assay with gastric acid secretion, the % Inhibition (as a rule, the drop in the measured response relative to a control, in per cent) at 10 mg/kg was 100%.
Take `Cc1c(N2CCCCC2)ccnc1C[S+]([O-])c1nc2cc(N3CCCCC3)c(F)cc2[nH]1` (stereo not shown) [Example 69]: in the assay on gastric acid secretion, the inhibition in vivo at 10 mg/kg came to 97%.
`COc1ccnc(C[S+]([O-])c2nc3cc(N4CCN(C(=O)OC(C)(C)C)CC4)c(F)cc3[nH]2)c1C` (stereo not shown) [Example 73, 2-[[(4-Methoxy-3methyl)pyridin-2-yl]methylsulfinyl]-6-fluoro-5-(4-t-butyloxycarbonylpiperazin-1-yl)-1H-benzimidazole] had an inhibition in vivo at 10 mg/kg with gastric acid secretion of 93%.
The same measure, in the same setting: the figure for `COc1ccnc(C[S+]([O-])c2nc3cc(N4CCCCCC4)c(F)cc3[nH]2)c1C` (stereo not shown) [Example 80, 2-[[(4-Methoxy-3-methyl)pyridin-2-yl]methylsulfinyl]-6-fluoro-5-(hexamethyleneimin-1-yl)-1H-benzimidazole] is 100%.
Take `COc1ccnc(C[S+]([O-])c2nc3cc(N4CCCCCC4)c(F)cc3[nH]2)c1C` (stereo not shown) [Example 81, 2-[[(4-Methoxy-3-methyl)pyridin-2-yl]methylsulfinyl]-6-fluoro-5-(hexamethyleneimin-1-yl)-1H-benzimidazole, sodium salt]: in the assay on gastric acid secretion, the “% Inhibition at 10 mg/kg” value was determined as 100%.
For `Cc1c(N2CCOCC2)ccnc1C[S+]([O-])c1nc2cc(N3CCCCCC3)c(F)cc2[nH]1` (stereo not shown) [Example 82, 2-[[(4-(Morpholin-1-yl)-3-methyl)pyridin-2-yl]methylsulfinyl]-6-fluoro-5-(hexamethyleneimin-1-yl)-1H-benzimidazole], at 10 mg/kg the inhibition in vivo in the assay on gastric acid secretion was 100%.
The compound `COc1ccnc(C[S+]([O-])c2nc3cc(N4CCCC4)c(F)cc3[nH]2)c1C` (stereo not shown) [Example 84, 2-[[(4-Methoxy-3-methyl)pyridin-2-yl]methylsulfinyl]-6-fluoro-5-(pyrrolidin-1-yl)-1H-benzimidazole] gave an inhibition in vivo at 10 mg/kg with gastric acid secretion of 93%.
On the same count and under the same terms, the figure for `COc1ccnc(C[S+]([O-])c2nc3cc(N4CCOCC4)ccc3[nH]2)c1C` (stereo not shown) [Example 87, 2-[[(4-Methoxy-3-methyl)pyridin-2-yl]methylsulfinyl]-5-(morpholin-1-yl)-1H-benzimidazole] is 90%.
On the same count and under the same terms, with `COc1ccnc(C[S+]([O-])c2nc3cc(N4CCN(C(=O)OC(C)(C)C)CC4)ccc3[nH]2)c1C` (stereo not shown) [Example 90, 2-[[(4-Methoxy-3-methyl)pyridin-2-yl]methylsulfinyl]-5-(4-t-butyloxycarbonylpiperazin-1-yl)-1H-benzimidazole] the figure was 100%; with `COc1ccnc(C[S+]([O-])c2nc3cc(N4CCCCCC4)ccc3[nH]2)c1C` (stereo not shown) [Example 91, 2-[[-(4-Methoxy-3-methyl)pyridin-2-yl]methylsulfinyl]-5-(hexamethyleneimin-1-yl)-1H-benzimidazole], 97%.
Turning to `COc1ccc2[nH]c([S+]([O-])Cc3ncc(C)c(OC)c3C)nc2c1` (stereo not shown) [Omeprazole, 2-[[(4-methoxy-3,5-dimethyl)pyridin-2-yl]methylsulfinyl]-5-methoxy-1H-benzimidazole, reference compound], in the assay on gastric acid secretion, testing at 10 mg/kg gave an inhibition in vivo of 75% and the 50% effective dose (ED50) is 4.96 ± 0.5 mg/kg. Further, the IC50 on H^+ /K^+ - ATPase is 4.35 ± 0.56 µM.
